Assay [1] concerns the target T1, MAP/microtubule affinity-regulating kinase 4 (Homo sapiens) (UniProt Q96L34).
T1 sequence (whole entry): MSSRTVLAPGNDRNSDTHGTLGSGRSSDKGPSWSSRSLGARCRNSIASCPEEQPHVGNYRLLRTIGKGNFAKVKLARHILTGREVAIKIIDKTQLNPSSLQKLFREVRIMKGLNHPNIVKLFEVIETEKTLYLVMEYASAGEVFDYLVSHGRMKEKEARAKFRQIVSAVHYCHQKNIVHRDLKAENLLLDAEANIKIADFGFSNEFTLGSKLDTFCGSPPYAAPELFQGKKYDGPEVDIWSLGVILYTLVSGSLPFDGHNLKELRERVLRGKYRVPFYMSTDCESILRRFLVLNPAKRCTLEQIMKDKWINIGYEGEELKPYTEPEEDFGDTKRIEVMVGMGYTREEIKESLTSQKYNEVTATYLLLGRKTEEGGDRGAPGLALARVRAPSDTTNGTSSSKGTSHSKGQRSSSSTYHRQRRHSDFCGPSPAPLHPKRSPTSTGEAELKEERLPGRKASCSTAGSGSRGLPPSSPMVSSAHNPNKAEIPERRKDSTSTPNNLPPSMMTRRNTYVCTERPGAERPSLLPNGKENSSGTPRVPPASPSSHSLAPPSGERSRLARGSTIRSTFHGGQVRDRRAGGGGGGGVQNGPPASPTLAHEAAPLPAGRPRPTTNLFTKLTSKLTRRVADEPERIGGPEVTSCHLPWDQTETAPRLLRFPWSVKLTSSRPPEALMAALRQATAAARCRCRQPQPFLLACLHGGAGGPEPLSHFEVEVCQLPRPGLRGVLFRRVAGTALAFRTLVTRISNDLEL
Put plainly: Selectivity interaction (Kinase panel (Carna Biosciences)) EUB0001542aTs MARK4. As to conditions: at 1 µM.

In assay [2] the target is Ribosomal protein S6 kinase alpha-5 (Homo sapiens) (UniProt O75582). Put plainly: Selectivity interaction (Ambit KINOMEscan and KiNATiv profiling in Jurkat cells) EUB0000090b RPS6KA5. The note with it: at 1 µM. In kind it is cell-based.
For assay [3], the system named is Mast/stem cell growth factor receptor Kit (Homo sapiens), P10721 [L576P]. As to conditions: at 10 µM.
Assay [4] has as its target T2, Cyclin-dependent kinase-like 5 (Homo sapiens) (UniProt O76039).
T2 sequence (whole entry): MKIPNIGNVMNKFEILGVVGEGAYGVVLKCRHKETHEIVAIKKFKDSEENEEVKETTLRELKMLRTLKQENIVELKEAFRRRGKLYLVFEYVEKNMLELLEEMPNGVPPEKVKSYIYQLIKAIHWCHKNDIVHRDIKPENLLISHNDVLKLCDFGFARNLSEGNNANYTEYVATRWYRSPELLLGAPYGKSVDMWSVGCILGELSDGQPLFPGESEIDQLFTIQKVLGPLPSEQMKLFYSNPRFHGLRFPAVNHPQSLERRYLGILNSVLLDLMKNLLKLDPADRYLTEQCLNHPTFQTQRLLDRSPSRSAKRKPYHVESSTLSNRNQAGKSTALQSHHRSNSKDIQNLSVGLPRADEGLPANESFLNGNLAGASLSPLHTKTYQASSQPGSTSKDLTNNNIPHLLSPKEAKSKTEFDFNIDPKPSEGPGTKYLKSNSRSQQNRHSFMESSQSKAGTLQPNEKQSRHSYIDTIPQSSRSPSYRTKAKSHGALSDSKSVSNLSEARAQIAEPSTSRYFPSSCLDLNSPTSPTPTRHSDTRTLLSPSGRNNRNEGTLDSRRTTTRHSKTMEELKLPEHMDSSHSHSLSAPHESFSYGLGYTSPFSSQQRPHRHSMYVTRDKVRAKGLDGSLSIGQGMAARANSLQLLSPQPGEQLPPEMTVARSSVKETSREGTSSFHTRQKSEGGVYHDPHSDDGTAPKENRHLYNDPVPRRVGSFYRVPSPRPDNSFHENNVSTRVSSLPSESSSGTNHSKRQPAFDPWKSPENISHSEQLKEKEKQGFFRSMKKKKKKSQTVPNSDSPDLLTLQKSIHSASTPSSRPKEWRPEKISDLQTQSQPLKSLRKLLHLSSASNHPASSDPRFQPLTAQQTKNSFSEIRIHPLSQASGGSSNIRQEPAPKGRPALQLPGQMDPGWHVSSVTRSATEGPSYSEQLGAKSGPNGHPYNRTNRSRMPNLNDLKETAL
The note with it: at 10 µM.

Assay [5] deals with Serine/threonine-protein kinase WNK2 (Homo sapiens) (UniProt Q9Y3S1). Put plainly: Selectivity interaction (KinomeScan (DiscoverX)) EUB0000229b WNK2. As to conditions: at 10 µM.
In assay [6] the target is Bone morphogenetic protein receptor type-1B (Homo sapiens, UniProt O00238). Description: Selectivity interaction (KinomeScan (DiscoverX)) EUB0000655a BMPR1B. As to conditions: at 10 µM.
In assay [7] the target is Substance-P receptor (Homo sapiens) (UniProt P25103). Put plainly: Selectivity interaction (Panel of kinases, GPCRs, ion channels and transporters (enzymatic assay)) EUB0000266bCl TACR1.
Assay [8] has as its target Tyrosine-protein kinase Fer (Homo sapiens) (UniProt P16591). Put plainly: Selectivity interaction (ActivX KiNativ screen (kinase selectivity in THP-1 cell lysates)) EUB0000639a FER. In kind it is subcellular. As to conditions: lysate.
Assay [9] addresses Serine/threonine-protein kinase OSR1 (Homo sapiens) (UniProt O95747). Put plainly: Selectivity interaction (ActivX KiNativ screen (kinase selectivity in THP-1 cell lysates)) EUB0000639a OXSR1. The class given is subcellular. As to conditions: lysate.
Assay [10] deals with Serine/threonine-protein kinase WNK1 (Homo sapiens) (UniProt Q9H4A3). Description: Selectivity interaction (ActivX KiNativ screen (kinase selectivity in THP-1 cell lysates)) EUB0000639a WNK1. In kind it is subcellular. The note with it: lysate, at 1 µM.
Assay [11] deals with Myosin-IIIa (Homo sapiens) (UniProt Q8NEV4). Put plainly: Selectivity interaction (KinomeScan (DiscoverX)) EUB0001049a MYO3A. As to conditions: at 1 µM.

Structures are written as SMILES. A value given as a limit tells only on which side of the number the result lay.

Sequence of Serine/threonine-protein kinase OSR1 (Homo sapiens) (O95747 2-527 limits assumed): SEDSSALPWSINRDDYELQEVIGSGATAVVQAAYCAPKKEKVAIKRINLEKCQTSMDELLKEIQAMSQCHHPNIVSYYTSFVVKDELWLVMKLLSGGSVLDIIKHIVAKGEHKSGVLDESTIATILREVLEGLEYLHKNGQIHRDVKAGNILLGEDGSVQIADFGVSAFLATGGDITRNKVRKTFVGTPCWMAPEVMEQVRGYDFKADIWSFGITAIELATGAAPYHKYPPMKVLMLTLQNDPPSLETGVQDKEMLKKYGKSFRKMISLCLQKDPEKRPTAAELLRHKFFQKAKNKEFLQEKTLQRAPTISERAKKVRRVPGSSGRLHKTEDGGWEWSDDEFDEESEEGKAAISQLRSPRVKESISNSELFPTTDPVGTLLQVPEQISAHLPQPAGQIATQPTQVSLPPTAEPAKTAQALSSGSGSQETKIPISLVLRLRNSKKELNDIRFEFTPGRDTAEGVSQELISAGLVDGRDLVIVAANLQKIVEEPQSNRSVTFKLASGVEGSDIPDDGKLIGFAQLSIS
Sequence of Tyrosine-protein kinase Fer (Homo sapiens) (P16591 whole entry, looked up): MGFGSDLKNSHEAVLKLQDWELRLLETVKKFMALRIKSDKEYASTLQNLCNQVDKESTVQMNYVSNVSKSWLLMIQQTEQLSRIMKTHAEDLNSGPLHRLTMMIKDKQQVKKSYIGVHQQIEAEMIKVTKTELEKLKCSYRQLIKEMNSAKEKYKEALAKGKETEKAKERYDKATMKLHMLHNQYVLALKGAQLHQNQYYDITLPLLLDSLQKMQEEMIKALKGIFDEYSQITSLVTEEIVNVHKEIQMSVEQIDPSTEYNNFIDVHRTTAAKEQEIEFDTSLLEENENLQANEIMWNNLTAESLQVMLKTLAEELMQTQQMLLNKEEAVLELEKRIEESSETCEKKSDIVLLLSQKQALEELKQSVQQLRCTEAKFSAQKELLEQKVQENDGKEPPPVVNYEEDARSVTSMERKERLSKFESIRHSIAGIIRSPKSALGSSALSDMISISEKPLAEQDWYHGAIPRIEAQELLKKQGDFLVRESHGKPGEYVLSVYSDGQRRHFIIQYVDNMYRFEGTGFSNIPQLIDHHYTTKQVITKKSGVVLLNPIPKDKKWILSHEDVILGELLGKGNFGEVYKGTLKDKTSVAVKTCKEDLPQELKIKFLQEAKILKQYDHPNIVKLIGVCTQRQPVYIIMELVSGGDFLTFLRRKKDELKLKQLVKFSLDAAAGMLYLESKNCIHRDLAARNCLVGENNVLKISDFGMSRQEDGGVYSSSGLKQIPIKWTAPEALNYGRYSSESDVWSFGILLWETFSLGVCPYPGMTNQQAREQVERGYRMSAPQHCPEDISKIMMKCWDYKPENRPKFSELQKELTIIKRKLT
Sequence of Serine/threonine-protein kinase WNK1 (Homo sapiens) (Q9H4A3 whole entry, looked up): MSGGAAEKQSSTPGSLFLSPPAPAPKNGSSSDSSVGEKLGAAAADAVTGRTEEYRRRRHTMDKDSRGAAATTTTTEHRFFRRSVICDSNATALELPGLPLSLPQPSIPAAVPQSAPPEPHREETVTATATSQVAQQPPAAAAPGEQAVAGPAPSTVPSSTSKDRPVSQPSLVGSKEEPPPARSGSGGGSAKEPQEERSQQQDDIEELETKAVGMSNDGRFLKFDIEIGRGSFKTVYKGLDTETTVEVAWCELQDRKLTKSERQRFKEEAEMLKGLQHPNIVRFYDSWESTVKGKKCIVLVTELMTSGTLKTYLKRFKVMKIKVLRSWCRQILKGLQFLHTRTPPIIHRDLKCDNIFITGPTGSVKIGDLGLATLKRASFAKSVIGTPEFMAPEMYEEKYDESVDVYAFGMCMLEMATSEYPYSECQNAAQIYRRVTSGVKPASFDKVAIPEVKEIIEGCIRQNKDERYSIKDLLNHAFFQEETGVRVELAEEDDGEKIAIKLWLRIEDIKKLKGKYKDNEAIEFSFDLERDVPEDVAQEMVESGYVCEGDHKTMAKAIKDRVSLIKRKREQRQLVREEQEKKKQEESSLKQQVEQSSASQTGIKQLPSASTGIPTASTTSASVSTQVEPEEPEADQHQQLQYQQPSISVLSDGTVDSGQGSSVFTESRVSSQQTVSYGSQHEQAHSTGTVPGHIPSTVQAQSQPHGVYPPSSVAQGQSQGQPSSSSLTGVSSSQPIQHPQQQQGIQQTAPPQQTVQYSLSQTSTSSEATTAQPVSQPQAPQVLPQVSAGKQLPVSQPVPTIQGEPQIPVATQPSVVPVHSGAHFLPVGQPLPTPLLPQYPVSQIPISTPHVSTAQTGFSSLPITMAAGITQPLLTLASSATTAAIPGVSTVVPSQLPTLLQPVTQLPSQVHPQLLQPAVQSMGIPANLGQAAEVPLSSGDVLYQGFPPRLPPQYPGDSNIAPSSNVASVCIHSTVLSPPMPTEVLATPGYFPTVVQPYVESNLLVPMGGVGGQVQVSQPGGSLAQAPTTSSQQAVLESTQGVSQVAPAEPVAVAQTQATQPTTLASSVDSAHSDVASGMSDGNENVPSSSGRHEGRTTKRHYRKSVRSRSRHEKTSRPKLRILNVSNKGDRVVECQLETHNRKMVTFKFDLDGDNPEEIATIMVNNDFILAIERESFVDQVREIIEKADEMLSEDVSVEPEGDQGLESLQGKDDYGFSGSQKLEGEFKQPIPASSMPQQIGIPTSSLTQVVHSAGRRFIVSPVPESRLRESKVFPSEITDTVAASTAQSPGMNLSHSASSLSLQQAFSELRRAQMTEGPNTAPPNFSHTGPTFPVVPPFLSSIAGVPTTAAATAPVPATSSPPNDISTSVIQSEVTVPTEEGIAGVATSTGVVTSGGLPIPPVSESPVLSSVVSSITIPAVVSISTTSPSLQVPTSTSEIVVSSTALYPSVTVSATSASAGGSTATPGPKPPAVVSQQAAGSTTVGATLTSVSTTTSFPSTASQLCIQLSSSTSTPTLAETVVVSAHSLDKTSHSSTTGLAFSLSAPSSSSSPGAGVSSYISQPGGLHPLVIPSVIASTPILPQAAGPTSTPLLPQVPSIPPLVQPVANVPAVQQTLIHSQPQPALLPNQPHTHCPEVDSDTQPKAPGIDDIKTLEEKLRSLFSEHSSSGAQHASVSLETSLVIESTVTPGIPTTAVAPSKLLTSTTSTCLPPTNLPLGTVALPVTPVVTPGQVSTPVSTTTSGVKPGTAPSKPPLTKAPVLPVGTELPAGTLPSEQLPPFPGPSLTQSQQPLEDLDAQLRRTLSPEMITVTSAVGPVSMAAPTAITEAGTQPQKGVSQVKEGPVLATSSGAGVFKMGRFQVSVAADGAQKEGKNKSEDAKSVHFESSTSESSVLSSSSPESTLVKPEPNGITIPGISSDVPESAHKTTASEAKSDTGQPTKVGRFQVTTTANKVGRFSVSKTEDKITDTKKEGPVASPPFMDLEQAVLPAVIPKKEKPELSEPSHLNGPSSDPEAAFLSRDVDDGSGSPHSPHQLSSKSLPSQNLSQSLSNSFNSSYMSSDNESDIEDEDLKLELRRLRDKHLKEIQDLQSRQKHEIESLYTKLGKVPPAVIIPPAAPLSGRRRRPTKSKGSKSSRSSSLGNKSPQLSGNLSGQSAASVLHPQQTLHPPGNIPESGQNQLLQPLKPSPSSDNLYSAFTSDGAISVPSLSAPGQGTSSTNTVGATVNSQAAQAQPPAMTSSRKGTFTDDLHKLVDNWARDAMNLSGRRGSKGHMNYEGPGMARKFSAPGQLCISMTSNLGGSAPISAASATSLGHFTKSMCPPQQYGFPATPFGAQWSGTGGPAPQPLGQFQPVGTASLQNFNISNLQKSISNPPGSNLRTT
Sequence of Bone morphogenetic protein receptor type-1B (O00238 whole entry): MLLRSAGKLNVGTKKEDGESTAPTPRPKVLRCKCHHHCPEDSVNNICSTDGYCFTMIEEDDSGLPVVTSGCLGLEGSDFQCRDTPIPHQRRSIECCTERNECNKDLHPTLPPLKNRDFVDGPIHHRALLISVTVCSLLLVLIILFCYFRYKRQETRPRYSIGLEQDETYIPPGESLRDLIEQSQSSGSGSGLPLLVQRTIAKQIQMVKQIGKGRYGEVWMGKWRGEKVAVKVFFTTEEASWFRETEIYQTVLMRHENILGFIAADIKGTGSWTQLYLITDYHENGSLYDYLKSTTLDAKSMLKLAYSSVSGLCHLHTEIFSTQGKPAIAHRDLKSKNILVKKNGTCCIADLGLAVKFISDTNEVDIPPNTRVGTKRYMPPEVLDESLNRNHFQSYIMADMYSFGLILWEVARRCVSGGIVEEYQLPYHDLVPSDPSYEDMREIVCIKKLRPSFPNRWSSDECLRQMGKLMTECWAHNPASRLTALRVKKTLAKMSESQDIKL
Sequence of Substance-P receptor (Homo sapiens) (P25103 whole entry): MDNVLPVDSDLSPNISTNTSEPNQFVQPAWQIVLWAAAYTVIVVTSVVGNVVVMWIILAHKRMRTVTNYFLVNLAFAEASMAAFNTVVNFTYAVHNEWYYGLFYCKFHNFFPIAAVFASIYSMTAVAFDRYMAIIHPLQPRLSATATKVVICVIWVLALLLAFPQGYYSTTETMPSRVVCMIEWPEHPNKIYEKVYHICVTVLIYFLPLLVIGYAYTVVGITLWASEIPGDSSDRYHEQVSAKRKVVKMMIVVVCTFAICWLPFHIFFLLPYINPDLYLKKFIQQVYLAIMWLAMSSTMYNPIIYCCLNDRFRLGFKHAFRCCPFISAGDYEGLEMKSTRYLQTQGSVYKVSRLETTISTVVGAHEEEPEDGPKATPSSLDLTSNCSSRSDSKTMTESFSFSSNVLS

On to `Cn1cc(Nc2nccc(N3CC4CCC(C3)N4C(=O)[C@@H]3CC3(F)F)n2)cn1`, for which, in assay [1], the % of inhibition was 59%.

For `CN(C)C/C=C/C(=O)Nc1ccc(C(=O)N2CCCC(Nc3ncc(Cl)c(-c4c[nH]c5ccccc45)n3)C2)cc1` (centres undefined), the % of control in assay [2] came out at 86%.

Consider `Cc1cc([C@@H](C)Nc2ccccc2C(=O)O)c2nc(N3CCOCC3)cc(=O)n2c1` [AZD-6482], for which the % of control in assay [3] was determined as 95%; in [4], 74%.

`COc1cc(N(C)c2ccnc3ccc(C(F)(F)F)cc23)cc(OC)c1OC` came in with a % binding in [5] of 100%.

In the case of `CN(C)CCOc1ccc(-c2nc(-c3ccncc3)c(-c3ccc4c(c3)CC/C4=N\O)[nH]2)cc1`, the % of control in [6] came to 26%.

In assay [7], `CCn1c(-c2nc3cc(C(=O)N4CCCC(N)C4)ccc3n2C)cc2ccccc21` (centres undefined) showed a pXC50 of under 4.4 M.

For `CC[C@@H]1[C@H](F)C(=O)N[C@@H]1COc1nccc2cc(C(N)=O)c(OC)cc12` [ZIMLOVISERTIB], the % of inhibition in assay [8] (at 0.01 µM) was -9.6%; in assay [8] (at 0.04 µM) it was 0.8%; in assay [8] (at 0.2 µM), -7.6%; in [8] (at 1 µM), 15.7%; in assay [8] (at 5 µM) it was 10.9%; in assay [9] (at 0.01 µM), -18.1%. The % of inhibition is -9.1% in [9] (at 0.04 µM); -3% in assay [9] (at 0.2 µM); -10.3% in assay [9] (at 1 µM); 16.3% in [9] (at 5 µM); -7.7% in assay [10].

As to `COc1cc(Nc2nc(C)cc(-c3cnn4nc(OC)ccc34)n2)cc(C(F)(F)F)c1`, the % of control in assay [11] is 87%.

Source of the values: ChEMBL document CHEMBL5465560, “Selectivity Literature for EUbOPEN Chemogenomic Library” (2024).
